Measurements: US9550744B2, “Vitamin C prodrugs and uses thereof” (priority 2013, dated 2017)

How the values were obtained:
[1] = solubility in water, room temperature (23±0.5° C.)
Experimental: After the suspensions were allowed to settle, about 0.020 mL of each supernatant was added to a UV cuvette containing about 2.98 mL of Millipore H2O, and the UV absorption of each solution was measured. The concentration, SAQ, of each compound was determined using Beer's Law and the previously measured molar absorptivities (ε, L mol^−1cm^−1) of each compound in water where A is the absorbance (no units), b is the path length of the cuvette (cm) and c is the concentration (mol L^−1) of each compound in the supernatant. Beer's Law: A=εbc c=A/εb

[2] = solubility in octanol, room temperature
Experimental: Lipid solubility (SLIPID): Each compound (50-100 mg) was stirred at rt in four test tubes containing 2 or 3 mL of isopropyl myristate (IPM) or octanol (OCT) overnight. The saturated suspensions were filtered and about 0.020 mL of each filtrate was diluted with 5 or 10 mL of acetonitrile (ACN). The UV absorbances of the diluted filtrates were measured and the concentrations of each compound in either IPM (SIPM) or OCT (SOCT) were determined using Beer's Law as above but using previously measured ε of each compound in ACN.
The solubilities in the lipid, SOCT or SIPM, could also then be calculated from KLIPID:AQ=SLIPID/SAQ.

[3] = Hydrolysis at pH 10.0 followed by iodine titration; format: physicochemical; conditions: pH 10.0, iodine titration with starch indicator
Experimental: If no free enediol is present, the excess iodine reacts with a starch indicator to give a blue color. During the titration, as iodine solution was added to the prodrug solution, a blue color formed initially but faded as the free enediol was released by hydrolysis of the prodrug and the iodine was reduced to iodide.

SMILES	log SAQ [1]	log SOCT [2]	theoretical amount of ascorbic acid acetonide formed from hydrolysis of the prodrug [3] [%]
CC(=O)OCOC1=C(OC(C)=O)C(=O)OC1C(O)CO (centres unmarked) [2-AcC1-3-SMC1 ascorbic acid]	2.05	1.66	
CCC(=O)OCOC1=C(OC(=O)CC)C(=O)OC1C1COC(C)(C)O1 (centres unmarked) [2-ethylcarbonyl-3-ethylcarbonyloxymethyl-5,6-isopropylidene ascorbic acid]			95.7
CC(=O)OCOC1=C(OC(C)=O)C(=O)OC1C1COC(C)(C)O1 [2-AcC1-3-SMC1 ascorbic acid acetonide, 5,6-Isopropylidene-3-O-(acetyloxymethyl)-2-O-acetyl-L-ascorbic acid]	1.56	1.55	
